Test results as given in US20260262644A1, “Antifungal compositions comprising natamycin” (Patent Nata B.V., priority 2023, published 2026).
Each block holds one compound with its values, some of them ahead of it.

Columns and labels:
Pythium ultimum [1] = test: Mycelium growth on PDA petri dishes containing natamycin and/or solvent; synergy by Colby equation; assay type: cell-based
From the text: The Colby equation (Colby, 1967. Weeds 15: 20-22) calculates the expected antifungal activity (E in %) of a combination comprising more than one active ingredients:
wherein X and Y are the observed antifungal activities (in %) of the individual active ingredients x and y, respectively. If the observed antifungal activity (O in %) of the combination exceeds the expected antifungal activity (E in %) of the combination and the synergy factor O/E is thus >1.0, the combined application of the active ingredients and solvent leads to a synergistic antifungal effect.
Agar medium was prepared by mixing in a 100 ml Duran bottle 3.9 g of potato dextrose agar (PDA; Carl-Roth GmbH+Co. KG, Karlsruhe, Germany) with 100 ml deionized water and autoclaving the Duran bottle at 120° C. for 15 minutes. After autoclaving, the solution was cooled by putting it in a 50° C. oven for about two hours. Afterward the semi-liquid PDA solution was carefully mixed with natamycin and/or solvent dosages as specified in Table 2 (left column). The medium in the Duran bottle was divided over 5 petri dishes (90×15 mm), 20 ml per petri dish by using 25 ml serological pipets (ROTILABO®; Carl-Roth). Each natamycin and/or solvent treatment was performed in five fold.
Hereafter, a circular agar mycelium plug (circular segment with a height on 5 mm of agar, fully grown with fresh Pythium ultimum mycelium, which was cut out of a petri dish with the broad side of a yellow pipette tip (Greiner Bio-One, 200 μl tips) with a diameter of 5 mm, was placed in the center of the petri dish. Hereafter the petri dishes were placed in the incubator at 22° C. Measurement of the fungal growth was done using caliper.
The solvent levels and the period after which the assessments were made are presented as specified for the different solvents are presented in Table 2 below. Synergistic calculation was done using the Colby equation. Experiment was performed in 5-fold.

Botrytis cinerea = test: as above; assay type: cell-based; conditions: 1 day after plug
Pythium ultimum [2] = test: Emergence of coated spinach seeds in artificially infected soil; assay type: in vivo; conditions: natamycin 0.25, BL 0, thymol 0 mg/g seeds, 6 days after sowing
Description: Spinach seeds were placed in soil that was artificially infected (see below for method).
Soil infection was obtained via incubation of soil with infected, killed rye seeds. […] The dead rye seeds were infected with Pythium ultimum PDA plugs (circular segments of PDA, covered with freshly fully grown Pythium ultimum mycelium, which were cut out of a petri dish with the broad side of a yellow pipette tip (Greiner Bio-One, 200 μl tips) with a diameter of 5 mm). Three P. ultimum agar plugs were placed in the 500 ml jar containing the 50 g autoclaved (dead) rye seeds, which was further incubated at 22° C. for one week (16 h day light, 8 hours dark). To prepare the infected soil, potting soil (Tuinaarde, ophoog grond, purchased from Welkoop) were placed in round transparent plastic containers (9 cm in diameter, 4.5 cm high, volume 250 ml). Ten infected rye seeds, that acted as a carrier for P. ultimum, were placed in each round plastic container. To treat the spinach seeds, 77.8 μl of treatment mix (see below) was added to 1 g of seeds in a plastic container. The seeds were shaken and let to dry. Once dried, 20 treated spinach seeds were added to the inoculated soil. The rye seeds and spinach seeds were mixed into the soil, so that both seed types were homogenously distributed within the soil as well as covered by the soil. […] Emergence of the seedlings was assessed. […]

Pythium ultimum [3] = test: Emergence of coated radish seeds in artificially infected soil; assay type: in vivo; conditions: natamycin 0.05, thymol 0 mg/g seeds, 2 days after sowing
Description: Soil infection was obtained via incubation of soil with infected, killed rye seeds. For this, 50 g of rye seeds and 50 ml water were put into a 500 ml glass jar, which was autoclaved twice (121° C., 15 min, 15 psi). The dead rye seeds were infected with Pythium ultimum PDA plugs (circular segments of PDA, covered with freshly fully grown Pythium ultimum mycelium, which were cut out of a petri dish with the broad side of a yellow pipette tip (Greiner Bio-One, 200 μl tips) with a diameter of 5 mm). Three P. ultimum agar plugs were placed in the 500 ml jar containing the 50 g autoclaved (dead) rye seeds, which was further incubated at 22° C. for one week (16 h day light, 8 hours dark). To prepare the infected soil, potting soil (Tuinaarde, ophoog grond, purchased from Welkoop) were placed in round transparent plastic containers (9 cm in diameter, 4.5 cm high, volume 250 ml). Ten infected rye seeds, that acted as a carrier for P. ultimum, were placed in each round plastic container. […] The seeds were shaken and let to dry. […] The containers were closed with transparent lids and placed into a growth cabinet with the following growth conditions: 16 h day light, 22° C. constant temperature, 70% humidity. Emergence of the seedlings was assessed. For each treatment 3 pots were used, resulting in 3 replicates. […]

[4] = Solubility of natamycin in solvents (HPLC); assay type: physicochemical
Description: The solubility of natamycin was measured in water and in the water-miscible solvent DMSO. For this, 240.6 mg and 94.3 mg of natamycin at a purity of 95% (DSM) were diluted in 50 ml of water and DMSO, respectively. The mixtures were sonicated for 30 minutes and analysed by HPLC. The HPLC system was an Agilent 1100 system. The column used was a ACE C18 RP column, 250×4.6 mm with pore size 5 μm. The mobile phase consisted of 1 g ammonium chloride and 3 g ammonium acetate dissolved in 760 mL water, and mixed with 240 mL acetonitrile and 5 mL tetrahydrofuran (THF). The speed of the flow was 3.0 ml/min and the column temperature was 25° C. The injection volume was 20 μL. Natamycin was detected with a spectrophotometer at a wavelength of 303 nm. All samples were centrifugated and filtered through 0.45 μm HPLC filters before analysis. The amount of dissolved natamycin measured in water and DMSO were 32 mg/kg and 2571 mg/kg, respectively (see Table 12).
For the water-miscible solvent Purasolv® EL, and the water-immiscible solvents BL and EHL, natamycin was added until it no longer dissolved. The mixtures were then filtered and analysed by HPLC. The amount of dissolved natamycin were 832, 211, and 271 mg/kg for EL, BL, and EHL, respectively (Table 12).

[5] = natamycin-solvent 0-12.5 ppm, 1 day after plug
[6] = natamycin-solvent 0-25 ppm, 1 day after plug
[7] = natamycin-solvent 0-250 ppm, 1 day after plug
[8] = natamycin-solvent 0-125 ppm, 2 days after plug, Tables 4-5
[9] = natamycin-solvent 0-250 ppm, 2 days after plug, Tables 4-5
[10] = natamycin-solvent 0-500 ppm, 2 days after plug, Tables 4-5
[11] = natamycin-solvent 0-12.5 ppm, 2 days after plug
[12] = natamycin-solvent 0-25 ppm, 2 days after plug
[13] = natamycin-solvent 0-250 ppm, 2 days after plug

Compound: CC(O)C(=O)N(C)C (stereo not shown) [Agnique ® AMD 3L, dimethyllactamide]
Avg infected area (Pythium ultimum [1]; [5]): 1220.5 mm^2
Observed % (Pythium ultimum [1]; [5]): 10.31%
Avg infected area (Pythium ultimum [1]; [6]): 1116.3 mm^2
Observed % (Pythium ultimum [1]; [6]): 17.97%
Avg infected area (Pythium ultimum [1]; [7]): 1278.7 mm^2
Observed % (Pythium ultimum [1]; [7]): 6.04%

Compound: CC(O)C(=O)N(C)C (stereo not shown) [DMAC, dimethyllactamide]
Avg infected area (Pythium ultimum [1]; [5]): 1251.6 mm^2
Observed % (Pythium ultimum [1]; [5]): 6.73%
Avg infected area (Pythium ultimum [1]; [7]): 1316.1 mm^2
Observed % (Pythium ultimum [1]; [7]): 1.93%

Compound: C[S+](C)[O-] [DMSO, Dimethyl Sulfoxide]
Avg infected area (Pythium ultimum [1]; [8]): 5247.969 mm2
Avg infected area (Pythium ultimum [1]; [9]): 5238.583 mm2
Avg infected area (Pythium ultimum [1]; [10]): 5129.162 mm2
Avg infected area (Pythium ultimum [1]; natamycin-solvent 0-1000 ppm, 2 days after plug, Tables 4-5): 4475.89 mm2

Compound: CCCCC(CC)COC(=O)[C@H](C)O (stereo partly drawn) [EHL, 2-ethylhexyl L-lactate]
Avg infected area (Pythium ultimum [1]; natamycin-solvent 0-125 ppm, 1 day after plug, Tables 6-7): 290.1899 mm2
Avg infected area (Pythium ultimum [1]; natamycin-solvent 0-250 ppm, 1 day after plug, Tables 6-7): 34.78 mm2
Avg infected area (Botrytis cinerea; natamycin-solvent 0-0.5 ppm): 1740.142 mm2
Observed % (Botrytis cinerea; natamycin-solvent 0-0.5 ppm): 11.74%

Compound: CCOC(=O)[C@H](C)O [EL, ethyl L-lactate]
Avg infected area (Pythium ultimum [1]; natamycin-solvent 0-12.5 ppm, 1 day after plug, Tables 6-7): 625.9774 mm2
Avg infected area (Pythium ultimum [1]; natamycin-solvent 0-25 ppm, 1 day after plug, Tables 6-7): 574.2358 mm2
Avg infected area (Pythium ultimum [1]; natamycin-solvent 0-50 ppm, 1 day after plug, Tables 6-7): 619.378 mm2
Avg infected area (Botrytis cinerea; natamycin-solvent 0-0.5 ppm): 1390.376 mm2
Observed % (Botrytis cinerea; natamycin-solvent 0-0.5 ppm): 29.48%

Compound: CCO [EtOH, Ethanol]
Avg infected area (Pythium ultimum [1]; [8]): 5488.804 mm2
Avg infected area (Pythium ultimum [1]; [9]): 5286.064 mm2
Avg infected area (Pythium ultimum [1]; [10]): 4366.453 mm2
Avg infected area (Botrytis cinerea; natamycin-solvent 0-0.5 ppm): 1602.867 mm2
Observed % (Botrytis cinerea; natamycin-solvent 0-0.5 ppm): 18.70%

Compound: C=CCCCCCCCC(=O)N(C)C [Hallcomid ® 1025]
Avg infected area (Pythium ultimum [1]; [11]): 3666.2 mm^2
Observed % (Pythium ultimum [1]; [11]): 30.89%
Avg infected area (Pythium ultimum [1]; [12]): 2118.6 mm^2
Observed % (Pythium ultimum [1]; [12]): 60.06%
Avg infected area (Pythium ultimum [1]; [13]): 0 mm^2
Observed % (Pythium ultimum [1]; [13]): 100.00%

Natamycin concentration (amount of dissolved natamycin) ([4]; in 2-ethylhexyl L-lactate (Purasolv EHL)): 271 mg/kg
Natamycin concentration (amount of dissolved natamycin) ([4]; in DMSO): 2571 mg/kg
Natamycin concentration (amount of dissolved natamycin) ([4]; in ethyl L-lactate (Purasolv EL)): 832 mg/kg
Natamycin concentration (amount of dissolved natamycin) ([4]; in n-butyl L-lactate (Purasolv BL)): 211 mg/kg
Natamycin concentration (amount of dissolved natamycin) ([4]; in water): 32 mg/kg
Compound: C[C@@H]1C/C=C/C=C/C=C/C=C/[C@H](O[C@@H]2O[C@H](C)[C@@H](O)[C@H](N)[C@@H]2O)C[C@@H]2O[C@](O)(C[C@@H](O)C[C@H]3O[C@@H]3/C=C/C(=O)O1)C[C@H](O)[C@H]2C(=O)O [Natamycin]
Avg infected area (Pythium ultimum [1]; natamycin-solvent 25-0 ppm, 2 days after plug, Tables 4-5): 4397.811 mm2
Avg infected area (Pythium ultimum [1]; natamycin-solvent 50-0 ppm, 1 day after plug, Tables 6-7): 563.7967 mm2
Avg infected area (Pythium ultimum [1]; natamycin-solvent 50-0 ppm, 2 days after plug, Tables 4-5): 4891.484 mm2
Avg infected area (Pythium ultimum [1]; natamycin-solvent 100-0 ppm, 2 days after plug, Tables 4-5): 4435.301 mm2
Avg infected area (Pythium ultimum [1]; natamycin-solvent 200-0 ppm, 2 days after plug, Tables 4-5): 5059.918 mm2
Avg infected area (Botrytis cinerea; natamycin-solvent 0.5-0 ppm): 1183.171 mm2
Observed % (Botrytis cinerea; natamycin-solvent 0.5-0 ppm): 39.99%
Avg germination (Pythium ultimum [2]): 18.3
Observed % (Pythium ultimum [2]): 37.50%
Avg germination (Pythium ultimum [3]): 41.7
Observed % (Pythium ultimum [3]): 13.64%

Compound: Xylene
Avg infected area (Pythium ultimum [1]; [12]): 5371.2 mm^2
Observed % (Pythium ultimum [1]; [12]): 1.35%
